{
  "source": "patent US11725015B2",
  "about": "“Macrocyclic compound and uses thereof” (President and Fellows of Harvard College, priority 2017, dated 2023)",
  "key": {"[1]": {"tested_on": "OSC-19 subcutaneous xenograft", "assay": "Antitumor activity against OSC-19 subcutaneous xenograft model in mice as monotherapy", "format": "in vivo", "details": "Q7D×2", "procedure": "A human squamous cell carcinoma of the head and neck (SCCHN) cell line OSC-19, which had been cultured in an DMEM/Ham's F-12 (1:1) medium containing 10% FBS, and penicillin and streptomycin, was adjusted to a concentration of 1×10^8 cells/ml with PBS to prepare a cell suspension, and the suspension was mixed with Matrigel™ (BD Bioscience, #366237) in a ratio of 1:1 to prepare a cell suspension in a concentration of 5×10^7 cell/mL. The cell suspension was inoculated in a volume of 100 μL into a subcutaneous part of a right flank of nude mice, 5 weeks of ages (CAnN.Cg-Foxnlnu/CrlCrlj, female, Charles River Laboratories Japan, Inc.).\nOn the basis of the volumes of tumors obtained on the first day of administration, the mice were grouped such that averages of the tumor volumes were substantially equal among the groups. The experiment was conducted on groups each consisting of 6 mice. Test compound was dissolved in saline and intravenously administered at doses from 0.06 mg/kg to 0.18 mg/kg once a week for 2 weeks (Q7D×2 schedule)."}, "[2]": {"tested_on": "human breast cancer cell line MDA-MB231", "assay": "MDA-MB231 growth inhibition assay", "format": "cell-based", "details": "3 days incubation, CellTiter-Glo", "procedure": "(§1) In this assay, the growth inhibitory activity of test compounds in a human breast cancer cell line MDA-MB231 was measured. MDA-MB231 cells were maintained in Dulbecco's Modified Eagle's medium (Wako Pure Chemical Industries, Ltd., 044-29765) medium containing 10% fetal bovine serum (FBS: Nichirei, 12D168), and penicillin and streptomycin in a 5% CO2 incubator (37° C.). To each well of a 96 well plate (Becton, Dickinson and Company, 353219), 75 μL of MDA-MB231 cell suspension adjusted to a concentration of 4×10^4 cells/mL with the culture medium was added, and the cells were incubated overnight in a 5% CO2 incubator (37° C.). On the next day, 25 μL of Compound (1) or Halichondrin B in three-fold dilution series suspended in the culture medium was added to each well, and the resultant was incubated for 3 days in a 5% CO2 incubator (37° C.). Then, cell viability was determined by CellTiter-Glo® Luminescent Cell Viability Assay (Promega) with EnVision 2103 Multilabel Reader (Perkin-Elmer, Wellesley, Mass.). Value of the wells containing cells without adding the test compounds was defined as 100% and the value of the wells containing no cells was defined as 0%. The concentration of the test compound necessary for inhibiting the cell growth by 50% (i.e., an IC50 value) was calculated, and shown in Table 2."}, "[3]": {"tested_on": "human squamous cell carcinoma of the head and neck (SCCHN) cell line FaDu", "assay": "FaDu growth inhibition assay", "format": "cell-based", "details": "3 days incubation, CellTiter-Glo", "procedure": "as §1, with “squamous cell carcinoma of the head and neck (SCCHN)” for “breast cancer”, “FaDu” for “MDA-MB231”, “an RPMI-1640” for “Dulbecco's Modified Eagle's medium”, “187-02021)” for “044-29765)”, “1.” for “2.”"}, "[4]": {"tested_on": "FaDu-Luc subcutaneous xenograft", "assay": "FaDu s.c. xenograft model in combination with radiation", "format": "in vivo, mice", "procedure": "Luciferase-transduced FaDu-Luc cells were established by retrovirus-mediated gene transfer. […]. Then, helper-free recombinant retroviruses were produced by transfecting the above retroviral expression vector together with pGP and pE-Ampho plasmids (Takara Bio; Shiga, Japan), into 293T cells (ATCC; Manassas, USA). Next, FaDu cells were infected with the recombinant retroviruses, and were cultured for two weeks in the presence of puromycin (2 μg/mL). The infected cells were selected from a polyclonal proliferative population of the culture.\nA luciferase-transduced human SCCHN cell line FaDu-Luc, which had been cultured in an RPMI-1640 medium containing 10% FBS, and penicillin and streptomycin, was adjusted to a concentration of 5×10^7 cells/mL with Hank's Balanced Salt Solution to prepare a cell suspension. The cell suspension was inoculated in a volume of 100 μL into a subcutaneous part of a right thigh of nude mice, 6 weeks of ages (CAnN.Cg-Foxnlnu/CrlCrlj, female, Charles River Laboratories Japan, Inc.). Thirteen days after the cell inoculation, the tumor volume was analyzed using bioluminescence signal from FaDu-Luc cells. […] The bioluminescence signal was monitored using the IVIS […] series (PerkinElmer, Waltham, Mass.), consisting of a highly sensitive, cooled chargecoupled device camera. […] Data were analyzed using total photon flux emission (photons/second) in the ROIs. […]"}},
  "data": [
    {"molecule": "C=C1C[C@@H]2CC[C@@]34C[C@H]5O[C@H]6[C@@H](O3)[C@H]3O[C@H](CC[C@@H]3O[C@H]6C5O4)CC(=O)O[C@@H]3[C@@H](C)[C@@H]4O[C@@H]5C[C@]6(C[C@@H]7O[C@]8(C[C@H](C)[C@@H]9O[C@H](CN)[C@H](O)C[C@@H]9O8)C[C@H](C)[C@@H]7O6)O[C@@H]5C[C@@H]4O[C@H]3C[C@H]3O[C@@H](CC[C@@H]1O2)C[C@@H](C)C3=C", "note": "[Compound (1)]", "values": [
      {"measurement": "Tumor Regression (%)", "setting": "[1]; 0.06 mg/kg intravenously", "value": 59, "unit": "%"},
      {"measurement": "Tumor Regression (%)", "setting": "[1]; 0.18 mg/kg intravenously", "value": 90, "unit": "%"},
      {"measurement": "IC50", "setting": "[2]", "value": 0.109, "unit": "nM"},
      {"measurement": "IC50", "setting": "[3]", "value": 0.0714, "unit": "nM"},
      {"measurement": "Tumor Regression (%)", "setting": "[4]; 0.09 mg/kg on day 1 and 8 + radiation 18 Gy on day 4 and day 11", "value": 97, "unit": "%"},
      {"measurement": "Tumor Regression (%)", "setting": "[4]; 0.09 mg/kg on day 1 and 8, without radiation", "value": 0, "unit": "%"}
    ]}
  ]
}
